Reference: patent publication US9994581B2, “Bromodomain inhibitors” (AbbVie Inc., priority 2013, dated 2018)

Legend:
[1] = system: breast cancer cell line MX-1; assay: MX-1 cell line proliferation assay (3-day, Cell Titer Glo); assay type: cell-based; settings: Homo sapiens, MX1, MX-1 cells, 72 hours, read-out: Cellular proliferation: EC50
Description: The impact of compounds of the Examples on cancer cell proliferation was determined using the breast cancer cell line MX-1 (ATCC) in a 3-day proliferation assay and the data are reported in Table 1. […] For compound testing, MX-1 cells were plated in 96-well black bottom plates at a density of 5000 cells/well in 90 μL of culture media and incubated at 37° overnight to allow cell adhesion and spreading. Compound dilution series were prepared in DMSO via a 3-fold serial dilution from 3 mM to 0.1 μM. The DMSO dilution series were then diluted 1:100 in phosphate buffered saline, and 10 μL of the resulted solution were added to the appropriate wells of the MX-1 cell plate. The final compound concentrations in the wells were 3, 1, 0.3, 0.1, 0.03, 0.01, 0.003, 0.001, 0.0003, and 0.0001 μM, or 1, 0.3, 0.1, 0.03, 0.01, 0.003, 0.001, 0.0003, 0.0001, and 0.00003 μM.
Luminescence readings from the Cell Titer Glo assay were normalized to the DMSO treated cells and analyzed using the GraphPad Prism software with sigmoidal curve fitting to obtain EC50s.

[2] = target: BRD4 (BDI-BDII_K57-K550) (Homo sapiens, UniProt O60885); assay: TR-FRET bromodomain binding assay; settings: His-tagged tandem bromodomain, Alexa647-labeled probe; Ki calculated from IC50s, probe Kd and probe concentration
Description: A time-resolved fluorescence resonance energy transfer (TR-FRET) assay was used to determine the affinities of compounds of the Examples listed in Table 1 for the tandem domain of bromodomain BRD4. […] An Alexa647-labeled BET-inhibitor was used as the fluorescent probe in the assay.
TR-FRET data were normalized to the means of 24 no-compound controls (“high”) and 8 controls containing 1 μM un-labeled probe (“low”). Percent inhibition was plotted as a function of compound concentration and the data were fit with the 4 parameter logistic equation to obtain IC50s. Inhibition constants (Ki) were calculated from the IC50s, probe Kd and probe concentration. Typical Z′ values were between 0.65 and 0.75.

SMILES	EC50 [1] [nM]	Ki [2] [nM]
Cn1cc2c(cc1=O)OCCCCc1cc(Cl)ccc1Oc1ncc(C(=O)O)cc1-2 [Example A-38, 11-chloro-2-methyl-3-oxo-2,3,6,7,8,9-hexahydrobenzo[11,12][1,6]dioxacyclododecino[2,3-b:4,5-c′]dipyridine-17-carboxylic acid]	> 1000	14.7
Cn1cc2c(cc1=O)OCCCCc1cc(Cl)ccc1Oc1ncc(CO)cc1-2 [Example A-39, 11-chloro-17-(hydroxymethyl)-2-methyl-6,7,8,9-tetrahydrobenzo[11,12][1,6]dioxacyclododecino[2,3-b:4,5-c′]dipyridin-3(2H)-one]	173	15.7
Cn1cc2c(cc1=O)OCCCCc1cc(Cl)ccc1Oc1ncc(CS(C)(=O)=O)cc1-2 [Example A-40, 11-chloro-2-methyl-17-((methylsulfonyl)methyl)-6,7,8,9-tetrahydrobenzo[11,12][1,6]dioxacyclododecino[2,3-b:4,5-c′]dipyridin-3(2H)-one]	23.7	6.09
CCS(=O)(=O)Nc1ccc2c(c1)-c1cn(C)c(=O)cc1OCCCCc1cc(Cl)cnc1O2 [Example A-41, N-(3-chloro-12-methyl-11-oxo-5,6,7,8,11,12-hexahydrobenzo[4,5][1,6]dioxacyclododecino[7,8-b:3,2-c′]dipyridin-15-yl)ethanesulfonamide]	26.8	8.05
CCS(=O)(=O)c1ccc2c(c1)-c1cn(C)c(=O)cc1OCCCCc1ccncc1O2 [Example A-42, 17-(ethylsulfonyl)-2-methyl-6,7,8,9-tetrahydrobenzo[4,5][1,6]dioxacyclododecino[3,2-c:7,8-c′]dipyridin-3(2H)-one]	10.2	0.86
Cn1cc2c(cc1=O)OCCCCc1cc(F)cc(F)c1Oc1ncc(CS(C)(=O)=O)cc1-2 [Example A-43, 11,13-difluoro-2-methyl-17-((methylsulfonyl)methyl)-6,7,8,9-tetrahydrobenzo[11,12][1,6]dioxacyclododecino[2,3-b:4,5-c′]dipyridin-3(2H)-one]	10.7	3.82
Cn1cc2c(cc1=O)OCCCCc1ccc(Cl)cc1Oc1ccc(NS(C)(=O)=O)cc1-2 [Example A-44, N-(12-chloro-2-methyl-3-oxo-2,3,6,7,8,9-hexahydrodibenzo[4,5:7,8][1,6]dioxacyclododecino[3,2-c]pyridin-17-yl)methanesulfonamide]	4.05	1.22
CCS(=O)(=O)Nc1ccc2c(c1)-c1cn(C)c(=O)cc1OCCCCc1cc(C#N)ccc1O2 [Example A-45, N-(11-cyano-2-methyl-3-oxo-2,3,6,7,8,9-hexahydrodibenzo[4,5:7,8][1,6]dioxacyclododecino[3,2-c]pyridin-17-yl)ethanesulfonamide]	3.82	1.84
CCS(=O)(=O)Nc1ccc2c(c1)-c1cn(C)c(=O)cc1OCCCCc1cccnc1O2 [Example A-46, N-(12-methyl-11-oxo-5,6,7,8,11,12-hexahydrobenzo[4,5][1,6]dioxacyclododecino[7,8-b:3,2-c′]dipyridin-15-yl)ethanesulfonamide]	50.7	32.1
Cn1cc2c(cc1=O)OCCCCc1cc(C#N)ccc1Oc1ccc(NS(C)(=O)=O)cc1-2 [Example A-47, N-(11-cyano-2-methyl-3-oxo-2,3,6,7,8,9-hexahydrodibenzo[4,5:7,8][1,6]dioxacyclododecino[3,2-c]pyridin-17-yl)methanesulfonamide]	24.4	3.68
CCS(=O)(=O)Nc1ccc2c(c1)-c1cn(C)c(=O)cc1OCCCCc1cc(F)c(F)cc1O2 [Example A-48, N-(11,12-difluoro-2-methyl-3-oxo-2,3,6,7,8,9-hexahydrodibenzo[4,5:7,8][1,6]dioxacyclododecino[3,2-c]pyridin-17-yl)ethanesulfonamide]	4.31	1.32
CCS(=O)(=O)Nc1ccc2c(c1)-c1cn(C)c(=O)cc1OCCCCc1cc(F)ccc1O2 [Example A-49, N-(11-fluoro-2-methyl-3-oxo-2,3,6,7,8,9-hexahydrodibenzo[4,5:7,8][1,6]dioxacyclododecino[3,2-c]pyridin-17-yl)ethanesulfonamide]	3.64	1.57
Cn1cc2c(cc1=O)OCCCCc1cc(F)ccc1Oc1ccc(NS(C)(=O)=O)cc1-2 [Example A-50, N-(11-fluoro-2-methyl-3-oxo-2,3,6,7,8,9-hexahydrodibenzo[4,5:7,8][1,6]dioxacyclododecino[3,2-c]pyridin-17-yl)methanesulfonamide]	3.72	2.24
Cn1cc2c(cc1=O)OCCCCc1cc(C(F)(F)F)ccc1Oc1ccc(NS(C)(=O)=O)cc1-2 [Example A-51, N-(2-methyl-3-oxo-11-(trifluoromethyl)-2,3,6,7,8,9-hexahydrodibenzo[4,5:7,8][1,6]dioxacyclododecino[3,2-c]pyridin-17-yl)methanesulfonamide]	14	1.72
CCS(=O)(=O)Nc1ccc2c(c1)-c1cn(C)c(=O)cc1OCCCCc1ccc(Cl)cc1O2 [Example A-52, N-(12-chloro-2-methyl-3-oxo-2,3,6,7,8,9-hexahydrodibenzo[4,5:7,8][1,6]dioxacyclododecino[3,2-c]pyridin-17-yl)ethanesulfonamide]	5.76	0.75
CCS(=O)(=O)c1ccc2c(c1)-c1nn(C)c(=O)cc1OCCCCc1cc(Cl)ccc1O2 [Example A-53, 11-chloro-17-(ethylsulfonyl)-2-methyl-6,7,8,9-tetrahydrodibenzo[4,5:7,8][1,6]dioxacyclododecino[3,2-c]pyridazin-3(2H)-one]	47.5	6.32
CCS(=O)(=O)c1ccc2c(c1)-c1nn(C)c(=O)cc1OCCCCc1cc(C#N)ccc1O2 [Example A-54, 17-(ethylsulfonyl)-2-methyl-3-oxo-2,3,6,7,8,9-hexahydrodibenzo[4,5:7,8][1,6]dioxacyclododecino[3,2-c]pyridazine-11-carbonitrile]	162	19.7
CCS(=O)(=O)Nc1ccc2c(c1)-c1nn(C)c(=O)cc1OCCCCc1cc(Cl)ccc1O2 [Example A-55, N-(11-chloro-2-methyl-3-oxo-2,3,6,7,8,9-hexahydrodibenzo[4,5:7,8][1,6]dioxacyclododecino[3,2-c]pyridazin-17-yl)ethanesulfonamide]	14.2	2.91
CCS(=O)(=O)Nc1ccc2c(c1)-c1nn(C)c(=O)cc1OCCCCc1cc(C#N)ccc1O2 [Example A-56, N-(11-cyano-2-methyl-3-oxo-2,3,6,7,8,9-hexahydrodibenzo[4,5:7,8][1,6]dioxacyclododecino[3,2-c]pyridazin-17-yl)ethanesulfonamide]	16.9	3.99
CCS(=O)(=O)c1ccc2c(c1)-c1nn(C)c(=O)cc1OCCCCc1cc(F)cc(F)c1O2 [Example A-57, 17-(ethylsulfonyl)-11,13-difluoro-2-methyl-6,7,8,9-tetrahydrodibenzo[4,5:7,8][1,6]dioxacyclododecino[3,2-c]pyridazin-3(2H)-one]	53.1	8.44
CCS(=O)(=O)Nc1ccc2c(c1)-c1nn(C)c(=O)cc1OCCCCc1cc(F)cc(F)c1O2 [Example A-58, N-(11,13-difluoro-2-methyl-3-oxo-2,3,6,7,8,9-hexahydrodibenzo[4,5:7,8][1,6]dioxacyclododecino[3,2-c]pyridazin-17-yl)ethanesulfonamide]	18.4	2.01
CCS(=O)(=O)c1ccc2c(c1)-c1nn(C)c(=O)cc1OCCCCc1ccncc1O2 [Example A-59, 17-(ethylsulfonyl)-2-methyl-6,7,8,9-tetrahydrobenzo[4,5]pyrido[3′,4′:7,8][1,6]dioxacyclododecino[3,2-c]pyridazin-3(2H)-one]	111	24.2
CCS(=O)(=O)c1ccc2c(c1)-c1cn(C)c(=O)cc1OCCCCc1cccc(C)c1O2 [Example A-60, 17-(ethylsulfonyl)-2,13-dimethyl-6,7,8,9-tetrahydrodibenzo[4,5:7,8][1,6]dioxacyclododecino[3,2-c]pyridin-3(2H)-one]	1.16	5.8
CC(=O)Nc1ccc2c(c1)-c1cn(C)c(=O)cc1OCCN(C(C)=O)Cc1cc(Cl)ccc1O2 [Example B-2, N-(8-acetyl-11-chloro-2-methyl-3-oxo-2,3,6,7,8,9-hexahydrodibenzo[f,i]pyrido[3,4-k][1,8,4]dioxazacyclododecin-17-yl)acetamide]	142	15.6
Cn1cc2c(cc1=O)OCCNC(=O)c1cc(Cl)ccc1Oc1ccc(N)cc1-2 [Example B-3, 17-amino-11-chloro-2-methyl-7,8-dihydrodibenzo[f,i]pyrido[3,4-k][1,8,4]dioxazacyclododecine-3,9(2H,6H)-dione]	> 1000	172
